One compound from patent US8475783B2, “Apparatus and method for generating carbon dioxide as an attractant for biting arthropods” (priority 2011, dated 2013) can be followed below.

In the assay the test system is mosquitoes. Put plainly: Field mosquito collection with CDC-type mosquito trap baited with carbon dioxide. The assay is classed as in vivo. The note with it: for mosquitoes collected: carbon dioxide flow rate 250 mL/min. As for the experimental part:
As in Example 2, except that the sodium bicarbonate was delivered at 0.94 g·min so as to give a carbon dioxide flow rate of 250 mL/min. The gas outlet was coupled to a CDC-type mosquito trap, available from the John W. Hock Company of Gainesville Fla., and allowed to collect mosquitoes for 12 hours. For comparison, a similar trap but with carbon dioxide from a tank was placed about 100 m away. Sites were selected so as to provide a testing area that is known to be infested by mosquitoes and to provide similar terrain. In the comparison apparatus care was taken to use the same carbon dioxide flow rate.

SMILES strings stand for the structures.

In the case of `O=C=O` [CO2 Gas Tank, carbon dioxide], the mosquitoes collected by setting is: (Aug. 2, 2010, 12 hours) 12; (Aug. 5, 2010, 12 hours) 1; (Jul. 8, 2010, 12 hours) 73; (Jul. 12, 2010, 12 hours) 49; (Jul. 14, 2010, 12 hours) 14; (Jul. 15, 2010, 12 hours) 73. The mosquitoes collected was determined as 53 (Jul. 20, 2010, 12 hours); 99 (Jun. 23, 2010, 12 hours); 34 (Jun. 29, 2010, 12 hours). Moreover, the “Total collected (mosquitoes)” value (sum over 9 non-consecutive days, 12 hours each, 250 mL/min carbon dioxide) turned out to be 408.
